Laboratory results: patent US5037837A, “Phenoxypropylamine derivatives or salts thereof and antiulcer agents containing the same” (Terumo Kabushiki Kaisha, priority 1989, dated 1991)
pIC50: −log10 of the molar value. Values belong to the compound of their own block, whether it stands above or below them.

Experiments:
[1] = test system: ethanol hydrochloric acid ulcer; experiment: Inhibitory activity against ethanol hydrochloric acid ulcer; format: in vivo; details: SD male rats, 30 mg/kg orally, 1 hour before 150 mM HCl in 60% ethanol
Description: To SD male rats (weighing 150-250 g) fasted for 24 hours was administered orally a phenol derivative of the invention at a dose of 30 mg/kg bodyweight. One hour later, a hydrochloric acid solution in ethanol (containing 150 mM hydrochloric acid in 60% ethanol) was orally given in a volume of 0.5 ml/100 g bodyweight.
One hour later, the animals were sacrificed with ether. The stomach was excised and, after formalin treatment, measured for the length (mm) of lesions developed in glandular portions of the stomach. Total length of the lesions per animal was taken as ulcer index.
Percent inhibition of ulceration as referred to in the table is a value obtained by reducing from 1 the ulcer index for the rat with a phenol derivative of the invention orally given divided by the ulcer index for the orally nonadministered rat and multiplying the value by 100. The calculation is conducted by the formula shown below. [formula]

[2] = biological target: T1, 5-lipoxygenase (Rattus norvegicus, UniProt P12527); experiment: 5-Lipoxygenase-inhibiting activity; format: biochemical; details: RBL-1 cell supernatant; arachidonic acid 50 μg; 37° C., 15 min; 5-HETE by HPLC; read-out: 5-Lipoxygenase inhibiting activity, 50% Inhibition conc.
T1 construct: The supernatant is employed as an enzyme solution of a 5-lipoxygenase; endogenous in cells; host or cells: RBL-1 rat basophilic leukemia cells (supernatant of sonicated cells)
T1 sequence (P12527 1-673): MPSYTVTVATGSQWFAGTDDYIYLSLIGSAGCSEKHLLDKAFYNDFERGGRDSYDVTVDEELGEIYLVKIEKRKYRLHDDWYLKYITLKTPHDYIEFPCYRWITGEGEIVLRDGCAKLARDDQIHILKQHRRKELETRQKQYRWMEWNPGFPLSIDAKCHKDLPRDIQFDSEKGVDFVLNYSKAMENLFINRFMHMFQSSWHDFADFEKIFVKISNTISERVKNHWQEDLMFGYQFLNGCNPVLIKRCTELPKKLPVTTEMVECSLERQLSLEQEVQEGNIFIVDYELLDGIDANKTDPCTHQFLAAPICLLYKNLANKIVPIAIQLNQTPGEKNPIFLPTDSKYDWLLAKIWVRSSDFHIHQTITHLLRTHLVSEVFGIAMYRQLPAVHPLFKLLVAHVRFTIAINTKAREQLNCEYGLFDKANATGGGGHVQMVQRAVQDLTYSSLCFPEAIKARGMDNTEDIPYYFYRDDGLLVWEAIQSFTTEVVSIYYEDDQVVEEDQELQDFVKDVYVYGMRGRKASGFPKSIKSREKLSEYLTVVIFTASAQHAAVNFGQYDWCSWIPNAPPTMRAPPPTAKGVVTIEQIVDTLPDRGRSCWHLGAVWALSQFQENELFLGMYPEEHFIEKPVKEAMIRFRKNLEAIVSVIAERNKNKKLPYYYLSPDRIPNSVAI
Description: A suspension of rat-origin basophilic leukemia cell strain RBL-1 in an Eagle basal medium (manufactured by Gibco Laboratories) containing 10% FCS is cultivated in a 5% CO2 incubator at 37° C. The culture is then centrifuged at 4° C. to collect cells. The cells are re-suspended in a phosphate buffer solution at pH 7.4 to a cell density of 1.0×10^7 -3.0×10^7 cells/ml. The suspended cells are treated by an ultrasonic cell blender and then centrifuged at 15,000 rpm at 4° C. for 30 min. The supernatant is employed as an enzyme solution of a 5-lipoxygenase. In test tubes are placed 50 μg of arachidonic acid and a phenol derivative of the invention to be tested. To each of the test tubes are added 0.30 ml of phosphate buffer, 0.20 ml of the enzyme solution as prepared above and 5 μl of a 100 mM CaCl2 (calcium chloride) solution. The mixture is allowed to react at 37° C. for 15 min. To the reaction mixture, after ice-cooling, is added one drop of 1N HCl (hydrochloric acid), and the resulting mass is extracted with 2 ml of ethyl acetate. The extract is concentrated to dryness followed by the addition of 100 μl of methanol for use as a test specimen.
Said specimen is injected into octadecylsilane (ODS) reverse phase high performance liquid chromatography (HPLC), eluted with methanol - acetonitrile - water - acetic acid (15:45:35:0.01). Peak for 5-HETE (5-(s)-hydroxy-6,8,11,14-eicosatetraenoic acid), a 5-lipoxygenase product detected in approximately 25 min. is measured. The 5-lipoxygenase-inhibiting activity is determined by decrease in the peak for said 5-lipoxygenase product.
50% inhibitory concentration as referred to in the table means concentration of a phenol derivative required for controlling the production of […] as described above to 50% by introducing said phenol derivative when production of 5-HETE without phenol derivative of the invention is taken as 100%.

[3] = biological target: T2, histamine H2 receptors (Cavia porcellus, UniProt P47747); experiment: Antagonistic action against histamine H2 receptors (isolated right atrium); design: species or system Hartley male guinea pigs; details: guinea pig isolated right atrium, 30° C.; concentration for two-fold shift of the histamine dose-response curve; read-out: Antagonistic action against histamine H2 receptors, pA2 (converted)
T2 construct: Excised right atrium of Hartley male guinea pigs; from tissue; host or cells: isolated right atrium of male Hartley guinea pigs
T2 sequence (P47747 whole entry): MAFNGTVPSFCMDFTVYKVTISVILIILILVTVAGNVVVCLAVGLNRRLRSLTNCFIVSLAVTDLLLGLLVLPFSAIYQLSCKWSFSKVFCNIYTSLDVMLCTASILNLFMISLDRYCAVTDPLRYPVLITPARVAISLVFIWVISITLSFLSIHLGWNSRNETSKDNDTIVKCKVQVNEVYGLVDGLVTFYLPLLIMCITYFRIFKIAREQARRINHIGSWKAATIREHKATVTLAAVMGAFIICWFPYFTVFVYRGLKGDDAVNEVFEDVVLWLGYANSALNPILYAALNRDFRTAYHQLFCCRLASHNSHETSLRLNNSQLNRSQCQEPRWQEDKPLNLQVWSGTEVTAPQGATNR
Description: Excised right atrium of Hartley male guinea pigs (weighing 450-550 g) was used. Thus, the guinea pig was fainted by strongly hitting the occipital region, and then the chest opened to isolate the heart. The isolated heart was immersed in a Krebs-Henseleit nutrient solution at 30° C. which had sufficiently been aerated with 95% O2 +5% CO2. The right atrium with the right cardiac auricle attached thereto was separated carefully enough to avoid damages. Blood vessels and tissues attached around the separated organ were removed. Both ends of the separated right cardiac auricle were held with threaded Serfin, and the thread at one end was fixed in a tissue tank filled with the nutrient solution, and the thread at the other end connected to a tension measuring and recording instrument and loaded with 1-g weight. The nutrient solution in the tissue tank was maintained at a temperature of 30° C. and consistently aerated with a 95% O2 +5% CO2 gas. The nutrient solution was exchanged every 5-10 min.
After spontaneous contractions of the isolated right atrium specimen were stabilized, and the heart rate became constant, histamine was cumulatively introduced into the tissue tank. Thus, histamine was introduced cumulatively starting at 10^-7 M and gradually at 3×10^-7 M, 10^-6 M, […], and so on. When the heart rate became constant at a given concentration, the concentration was further increased, and the cumulative introduction of histamine was continued until the heart rate no more increased. There was then determined a histamine dose-response curve.
Antagonistic action of the phenol derivatives of the invention against histamine H2 receptors was tested using the isolated right atrium specimen previously employed for determining a histamine dose-response curve. Thus, said specimen with the increased heart rate by the cumulative introduction of histamine was repeatedly washed with a nutrient solution to remove the histamine. When the heart rate was decreased by the histamine removal to a constant level, a phenol derivative of the invention was introduced into the tissue tank. After the introduction of said phenol derivative, histamine was cumulatively introduced sufficiently to determine a histamine dose-response curve in the presence of said phenol derivative. Antagonistic action of the phenol derivatives of the invention is determined by measuring the distance (mm) at 50% reaction between the dose-response curve in the absence of said phenol derivative and one in the presence of said phenol derivative and calculating pA2 on the basis of the distance from the Van Rossum simplified table.
Note that the pA2 in the table means a -log value of the concentration of a phenol derivative of the invention necessary for parallel displacement of the histamine dose-response curve to the side of a twice increase in concentration.

pIC50 [2]: 4.49
Kb [3]: 0.631 µM
Structure (SMILES): COc1cc(CCC(=O)NCCCOc2cccc(CN3CCCCC3)c2)ccc1O [Example 5, N-[3-(3-(1-piperidinylmethyl)phenoxy)propyl]-3-(4-hydroxy-3-methoxyphenyl)propylamide]
Inhibitory activity against ethanol hydrochloric acid ulcer, Percent inhibition of ulceration [1]: 48.0%

pIC50 [2]: 5.05
Kb [3]: 0.0501 µM
Structure (SMILES): COc1cc(CCCC(=O)NCCCOc2cccc(CN3CCCCC3)c2)ccc1O [Example 6, N-[3-(3-(1-piperidinylmethyl)phenoxy)propyl]-4-(4-hydroxy-3-methoxyphenyl)butylamide]
Inhibitory activity against ethanol hydrochloric acid ulcer, Percent inhibition of ulceration [1]: 76.5%

pIC50 [2]: 5.23
Kb [3]: 0.141 µM
Structure (SMILES): O=C(CCCCc1ccc(O)c(O)c1)NCCCOc1cccc(CN2CCCCC2)c1 [Example 7, N-[3-(3-(1piperidinylmethyl)phenoxy)propyl]-5-(3,4dihydroxyphenyl)pentylamide]
Inhibitory activity against ethanol hydrochloric acid ulcer, Percent inhibition of ulceration [1]: 83.7%

Further lines, the compound ahead of its results:

Structure (SMILES): COc1cc(CCCCC(=O)NCCCOc2cccc(CN3CCCCC3)c2)ccc1O [Example 1, N-[3-(3(1-piperidinylmethyl)phenoxy)propyl]-5-(4-hydroxy-3methoxyphenyl)pentylamide]
Inhibitory activity against ethanol hydrochloric acid ulcer, Percent inhibition of ulceration [1]: 89.5%
pIC50 [2]: 5.21
Kb [3]: 0.0575 µM

Structure (SMILES): O=C(CCCCc1ccc(O)cc1)NCCCOc1cccc(CN2CCCCC2)c1 [Example 2, N-[3-(3-(1piperidinylmethyl)phenoxy)propyl]-5-(4-hydroxyphenyl)-pentylamide]
Inhibitory activity against ethanol hydrochloric acid ulcer, Percent inhibition of ulceration [1]: 33.4%
pIC50 [2]: 3.92
Kb [3]: 0.316 µM

Structure (SMILES): CC(C)(C)c1cc(CCCCC(=O)NCCCOc2cccc(CN3CCCCC3)c2)cc(C(C)(C)C)c1O [Example 3, N-[3-(3-(1-piperidinylmethyl)phenoxy)propyl]-5-(3,5-di-tert-butyl-4-hydroxyphenyl)pentylamide]
Inhibitory activity against ethanol hydrochloric acid ulcer, Percent inhibition of ulceration [1]: 42.9%
pIC50 [2]: 4.70
Kb [3]: 2.57 µM

Structure (SMILES): COc1cc(CCCCC(=O)NCCCOc2cccc(CN3CCCCC3)c2)cc(OC)c1O [Example 4, N-[3-(3-(1-piperidinylmethyl)phenoxy)propyl]-5-(4-hydroxy-3,5-dimethoxyphenyl)pentylamide]
Inhibitory activity against ethanol hydrochloric acid ulcer, Percent inhibition of ulceration [1]: 62.5%
pIC50 [2]: 4.89
Kb [3]: 0.49 µM
